Common to all, as to assay: steady-state kinetics, coupled assay with GAP dehydrogenase (NAD+)
The target of data set [1] is T1, ZmTrpA^L6BX1 (ZmTrpA_L6zmBX1) (Zea mays, UniProt B2Y0K4, T232V/V233N/T238P/S243N/G244P/K245R).
T1 construct: gene TSA; ZmTrpA with loop 6 replaced by that of ZmBX1; without TrpB
Format: biochemical. The settings on record: retro-aldol cleavage; 100 mM EPPS/KOH pH 7.5, 180 mM KCl, 40 μM PLP, 6 mM NAD+, 20 mM Na3AsO4, 30 °C; no TrpB; cited from earlier work. From the text: steady-state kinetics, coupled assay with GAP dehydrogenase (NAD+) on ZmTrpA^L6BX1 (ZmTrpA_L6zmBX1)

The target in another data set is T2, ZmTrpA + ZmTrpB (Zea mays, UniProt B2Y0K4).
T2 construct: gene TSA; alpha-beta-beta-alpha tryptophan synthase complex, TrpB in excess; construct details only in supplement; with Tryptophan synthase beta chain, chloroplastic
T2 sequence (B2Y0K4 entry or part of it): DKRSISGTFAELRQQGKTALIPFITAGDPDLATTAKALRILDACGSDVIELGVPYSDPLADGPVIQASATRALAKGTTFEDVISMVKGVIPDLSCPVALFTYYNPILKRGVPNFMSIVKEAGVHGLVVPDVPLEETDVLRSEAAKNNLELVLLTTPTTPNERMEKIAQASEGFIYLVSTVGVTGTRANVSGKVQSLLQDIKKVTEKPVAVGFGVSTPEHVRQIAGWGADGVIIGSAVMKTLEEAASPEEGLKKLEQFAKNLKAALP
T2 sequence (P43284 46-443, further chain): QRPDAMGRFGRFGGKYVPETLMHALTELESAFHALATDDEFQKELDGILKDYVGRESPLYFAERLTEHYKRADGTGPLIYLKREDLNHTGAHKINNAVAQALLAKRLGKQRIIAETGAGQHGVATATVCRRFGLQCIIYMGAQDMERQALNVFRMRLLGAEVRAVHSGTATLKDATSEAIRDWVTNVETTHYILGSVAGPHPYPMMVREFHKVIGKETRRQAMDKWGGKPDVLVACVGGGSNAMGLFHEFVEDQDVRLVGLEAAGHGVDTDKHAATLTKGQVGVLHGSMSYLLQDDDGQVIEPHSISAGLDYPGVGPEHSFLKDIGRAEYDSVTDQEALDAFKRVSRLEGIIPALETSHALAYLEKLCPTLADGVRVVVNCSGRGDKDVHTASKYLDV
The class given is biochemical. The settings on record: retro-aldol cleavage, 100 mM EPPS/KOH pH 7.5, 180 mM KCl, 40 μM PLP, 6 mM NAD+, 20 mM Na3AsO4, 100 mM L-serine, 30 °C. From the text:
steady-state kinetics, coupled assay with GAP dehydrogenase (NAD+) on ZmTrpA + ZmTrpB

In another data set the target is T3, ZmTrpA^L6BX1 + ZmTrpB (Zea mays, UniProt B2Y0K4, T232V/V233N/T238P/S243N/G244P/K245R, form not given).
T3 construct: gene TSA; ZmTrpA with loop 6 of ZmBX1, in complex with ZmTrpB in excess; with Tryptophan synthase beta chain, chloroplastic
T3 sequence (P43284 46-443, stated change not applied, form open): as the sequence (P43284 46-443, further chain) above
T3 sequence (B2Y0K4 entry or part of it T232V/V233N/T238P/S243N/G244P/K245R, form open): as the sequence (B2Y0K4 entry or part of it) above, with T179V, V180N, T185P, S190N, G191P, K192R counted along it
The class given is biochemical. Conditions: retro-aldol cleavage, 100 mM EPPS/KOH pH 7.5, 180 mM KCl, 40 μM PLP, 6 mM NAD+, 20 mM Na3AsO4, 100 mM L-serine, 30 °C, variant ZmTrpA^SPM4-L6BX1. The source says: steady-state kinetics, coupled assay with GAP dehydrogenase (NAD+) on ZmTrpA^L6BX1 + ZmTrpB

Substrate in data set [2]: O=P(O)(O)OC[C@@H](O)[C@@H](O)c1c[nH]c2ccccc12
Format: biochemical, Zea mays. The settings on record: retro-aldol cleavage, 100 mM EPPS/KOH pH 7.5, 180 mM KCl, 40 μM PLP, 6 mM NAD+, 20 mM Na3AsO4, 30 °C, no TrpB. The source says:
steady-state kinetics, coupled assay with GAP dehydrogenase (NAD+) on ZmBX1

T1 sequence (B2Y0K4 entry or part of it T232V/V233N/T238P/S243N/G244P/K245R): as the sequence (B2Y0K4 entry or part of it) above, with T179V, V180N, T185P, S190N, G191P, K192R counted along it

Regarding `O=P(O)(O)OC[C@@H](O)[C@@H](O)c1c[nH]c2ccccc12` [indole-glycerol phosphate], the Km in data set [1] was 3350 ± 340 µM; at ZmTrpA + ZmTrpB (variant ZmTrpA^SPM4), 134 ± 9 µM; on ZmTrpA + ZmTrpB (variant ZmTrpA^SPM6), 103 ± 13.1 µM; at ZmTrpA^L6BX1 + ZmTrpB it was 70 ± 12 µM.

B1: ZmBX1 (Zea mays) (protein)
chain: SRPVSDTMAALMAKGKTAFIPYITAGDPDLATTAEALRLLDGCGADVIELGVPCSDPYIDGPIIQASVARALASGTTMDAVLEMLREVTPELSCPVVLLSYYKPIMSRSLAEMKEAGVHGLIVPDLPYVAAHSLWSEAKNNNLELVLLTTPAIPEDRMKEITKASEGFVYLVSVNGVTGPRANVNPRVESLIQEVKKVTNKPVAVGFGISKPEHVKQIAQWGADGVIIGSAMVRQLGEAASPKQGLRRLEEYARGMKNALP
notes: standalone enzyme; construct details only in supplement
Consider B1, for which, in data set [2], the Km amounted to 11 ± 1.3 µM, the kcat stood at 5.2 ± 0.13 s⁻¹ and the catalytic efficiency (kcat/Km) came to 474000 ± 56100 M⁻¹ s⁻¹.

These data come from paper PMC11574760, “Altering Active-Site Loop Dynamics Enhances Standalone Activity of the Tryptophan Synthase Alpha Subunit” (ACS Catalysis, 2024).
